Experimental data as given in publication PMC6150365, “Simultaneous Determination of Seven Components in Rat Plasma by the UPLC-MS/MS Method and Application of Pharmacokinetic Studies to SimiaoYong’an Decoction” (Molecules : A Journal of Synthetic Chemistry and Natural …, 2017).
One block for each compound: values may come before it.

Experiment: Pharmacokinetic study in rats after oral administration of SYD extract and its single and combined TCM extracts (UPLC-MS/MS of plasma)
Conditions: male, Sprague-Dawley, rat, plasma, po, n = 6; for AUC(0-t) / AUC(0-inf) / Cmax / MRT last / MRT inf / Tmax: rat plasma; for MRT last: MRT(0–t); for MRT inf: MRT(0–∞)
[1] = 2.49 g/kg, oral SN extract 2.49 g/kg
[2] = 2.49 g/kg, Tmax, oral SN extract 2.49 g/kg
[3] = 2.49 g/kg, t1/2, rat plasma, oral SN extract 2.49 g/kg
[4] = 3.38 g/kg extract (6.67 g/kg as herbs), oral SN + GU extract
[5] = 3.38 g/kg extract (6.67 g/kg as herbs), Tmax, oral SN + GU extract
[6] = 3.38 g/kg extract (6.67 g/kg as herbs), t1/2, rat plasma, oral SN + GU extract
[7] = 3.38 g·kg^−1 (extract), oral SN + GU extract
[8] = 3.38 g·kg^−1 extract, oral SN + GU extract
[9] = 3.98 g/kg extract (8.33 g/kg as herbs), oral SN + AS extract
[10] = 3.98 g·kg^−1, t1/2, rat plasma, oral SN + AS extract
[11] = 3.98 g·kg^−1 extract, oral SN + AS extract
[12] = 4.5 g·kg^−1 (extract), oral LJ + SN extract
[13] = 4.5 g·kg^−1 (extract), t1/2, rat plasma, oral LJ + SN extract
[14] = 4.5 g·kg^−1 extract, oral LJ + SN extract
[15] = 4.73 g/kg, oral LJ + SN + GU extract 4.73 g/kg
[16] = 4.73 g/kg, Tmax, oral LJ + SN + GU extract 4.73 g/kg
[17] = 4.73 g/kg, t1/2, rat plasma, oral LJ + SN + GU extract 4.73 g/kg
[18] = 5.43 g/kg, oral LJ + SN + AS extract 5.43 g/kg
[19] = 5.43 g/kg, Tmax, oral LJ + SN + AS extract 5.43 g/kg
[20] = 5.43 g/kg, t1/2, rat plasma, oral LJ + SN + AS extract 5.43 g/kg
[21] = 8.25 g/kg, oral SYD extract 8.25 g/kg
[22] = 8.25 g/kg, Tmax, oral SYD extract 8.25 g/kg
[23] = 8.25 g/kg, t1/2, rat plasma, oral SYD extract 8.25 g/kg
[24] = […], Tmax, oral SN + AS + GU extract […]
[25] = […], t1/2, rat plasma, oral SN + AS + GU extract […]

Procedure: Pieces of LJ, SN, AS and GU were weighed according to the proportion of 3:3:2:1 with appropriate amounts. The mixed pieces were crushed and decocted two times (60 min each time) with water (1:10 w/v) after being soaked for 60 min. The decoctions were then combined and condensed to the concentration of 0.5 g/mL, after which 95% ethanol was slowly added to the concentrate until a final ethanol concentration of 70% was reached. The SYD solution was set at room temperature overnight and then was filtered. The solvent was recovered, and the residue was dried under reduced pressure. A certain amount of the water extract of SYD was weighed and then dissolved with purified water for intragastric (oral) administration solution. The single herbs and different combination groups such as LJ, SN, AS, GU, LJ + SN, LJ + AS, LJ + GU, SN + AS, SN + GU, AS + GU, LJ + SN + AS, LJ + SN + GU, LJ + AS + GU and SN + AS + GU were prepared according to the procedure of SYD.
Male Sprague-Dawley (SD) rats (body weight 250 ± 10 g) were supplied by the SPF (Beijing) Biotechnology Co., Ltd. (Certificate No.: SCXK 2016-0002, Beijing, China). The animals were maintained in controlled conditions (temperature 20–25 °C, relative humidity 55–60% and 12-h light/12-h dark cycle) with free access to standard laboratory food and water for seven days of acclimation and then fasted for 12 h before each experiment but allowed to drink freely during this time.
Ninety male SD rats were randomly separated into 15 groups and administered a dosage of extract via gastric gavage once per day; detailed information about the oral daily dose of SYD extract and the corresponding single and combined TCMs (LJ, SN, AS, GU, LJ + SN, LJ + AS, LJ + GU, SN + AS, SN + GU, AS + GU, LJ + SN + AS, LJ + SN + GU, LJ + AS + GU, SN + AS + GU and SYD) is listed in Table 4.
Each plasma sample (200 μL) with 50 μL IS solution added was spiked into 100 μL 1% formic acid distilled water solution and then vortexed for 1 min. Protein was precipitated by adding 600 μL of methanol to the mixture. After being vortexed and sonicated, the samples were centrifuged at 25,000 r/min, 4 °C for 10 min. The supernatant of each sample was transferred to a new 2-mL centrifuge tube and evaporated to dryness by N2 at 40 °C. Finally, the residue was dissolved in 100 μL methanol–water (1:1, v/v), followed by centrifugation at 30,000 r/min, 4 °C for 10 min, and 10-μL supernatant aliquots were injected into the UPLC-MS/MS system for analysis.
The SYD was decomposed into 15 groups of compatibility combinations (LJ, SN, AS, GU, LJ + SN, LJ + AS, LJ + GU, SN + AS, SN + GU, AS + GU, LJ + SN + AS, LJ + SN + GU, LJ + AS + GU, SN + AS + GU and SYD). The 15 combinations were weighed according to the proportion of 3:3:2:1 with appropriate amounts and prepared by the method described in “Section 3.2”. Six male SD rats (body weight 250 ± 10 g) of each compatibility group were used in the pharmacokinetic study. After 12-h fast, rats of the different groups were orally administered the respective extract dissolved in saline (Table 4). Venous blood (0.45 mL) was obtained from the orbit vein and collected in heparin-pretreated polypropylene centrifuge tubes at 0.083 h, 0.17 h, 0.25 h, 0.50 h, 0.75 h, 1.0 h, 1.5 h, 2.0 h, 3.0 h, 4.0 h, 6.0 h, 8.0, 12 h and 24 h post-dose. The plasma was separated by centrifugation at 8000 r/min for 10 min and then stored at −20 °C until analysis. The amount of each analyte in the plasma was estimated by UPLC-MS/MS analysis as described in Section 3.5.
Non-compartmental methods using Phoenix WinNonlin 7.0 software provided by the Beijing University of Chinese Medicine were used to analyze plasma concentration versus time profiles and to estimate the following pharmacokinetic parameters: terminal elimination half-lives (t1/2), area under the plasma concentration versus time curve from zero to last sampling time (AUC), and the mean residence time (MRT).

AUC(0-t) [1]: 310 ± 110 ng·h/mL | AUC(0-inf) [1]: 320 ± 110 ng·h/mL | Cmax [1]: 110 ± 50 ng/mL | MRT last [1]: 4.75 ± 1.17 h | MRT inf [1]: 5.69 ± 3.19 h | Tmax [2]: 1.08 ± 0.47 h | half-life [3]: 3.34 ± 3.36 h | MRT last [4]: 5.72 ± 2.55 h | MRT inf [4]: 47.5 ± 78.2 h | Tmax [5]: 1.25 ± 0.59 h | half-life [6]: 18.3 ± 6.9 h | AUC(0-t) [7]: 80 ± 10 ng·h/mL | AUC(0-inf) [7]: 110 ± 80 ng·h/mL | Cmax [8]: 50 ± 10 ng/mL | AUC(0-t) [9]: 100 ± 70 ng·h/mL | AUC(0-inf) [9]: 130 ± 90 ng·h/mL | MRT last [9]: 4.51 ± 2.04 h | MRT inf [9]: 41.9 ± 67.3 h | half-life [10]: 16.6 ± 1.4 h | Cmax [11]: 70 ± 10 ng/mL | MRT last [12]: 5.32 ± 1.39 h | MRT inf [12]: 46.3 ± 70.7 h | half-life [13]: 15.8 ± 1.19 h | AUC(0-t) [14]: 60 ± 10 ng·h/mL | AUC(0-inf) [14]: 90 ± 10 ng·h/mL | Cmax [14]: 30 ng/mL | AUC(0-t) [15]: 150 ± 70 ng·h/mL | AUC(0-inf) [15]: 190 ± 110 ng·h/mL | Cmax [15]: 80 ng/mL | MRT last [15]: 3.17 ± 0.59 h | MRT inf [15]: 22.6 ± 31.1 h | Tmax [16]: 1.79 ± 0.51 h | half-life [17]: 13.3 ± 4.59 h | AUC(0-t) [18]: 110 ± 80 ng·h/mL | AUC(0-inf) [18]: 110 ± 80 ng·h/mL | Cmax [18]: 50 ng/mL | MRT last [18]: 3.16 ± 0.68 h | MRT inf [18]: 13 ± 19.9 h | Tmax [19]: 1.63 ± 0.49 h | half-life [20]: 9.79 ± 5.03 h | AUC(0-t) [21]: 120 ± 90 ng·h/mL | AUC(0-inf) [21]: 140 ± 90 ng·h/mL | Cmax [21]: 70 ± 70 ng/mL | MRT last [21]: 3.92 ± 1.31 h | MRT inf [21]: 19.8 ± 8.74 h | Tmax [22]: 1.5 h | half-life [23]: 11.2 ± 2.64 h | Tmax [24]: 0.83 ± 0.13 h | half-life [25]: 15.5 ± 1.54 h
SMILES: C[C@]1(OC(=O)/C=C/c2ccccc2)C[C@@H](O)[C@]2(O)C=CO[C@@H](O[C@@H]3O[C@H](CO)[C@@H](O)[C@H](O)[C@H]3O)[C@@H]21 [Harpagoside, harpagoside]

AUC(0-t) [1]: 90 ± 30 ng·h/mL | AUC(0-inf) [1]: 110 ± 20 ng·h/mL | MRT last [1]: 3.03 ± 0.37 h | MRT inf [1]: 18.1 ± 3.41 h | Tmax [2]: 1.25 ± 0.59 h | half-life [3]: 10.7 ± 6.13 h | MRT last [4]: 2.86 ± 1.21 h | MRT inf [4]: 4.99 ± 3.19 h | Tmax [5]: 1.11 ± 0.52 h | half-life [6]: 9.91 ± 4.62 h | AUC(0-t) [7]: 410 ± 60 ng·h/mL | AUC(0-inf) [7]: 420 ± 80 ng·h/mL | Cmax [8]: 330 ± 50 ng/mL | AUC(0-t) [9]: 450 ± 30 ng·h/mL | AUC(0-inf) [9]: 460 ± 30 ng·h/mL | MRT last [9]: 2.85 ± 1.25 h | MRT inf [9]: 5.01 ± 3.31 h | Tmax (3.98 g·kg^−1, Tmax, oral SN + AS extract): 1.03 ± 0.49 h | half-life [10]: 10 ± 4.72 h | Cmax [11]: 400 ± 20 ng/mL | MRT last [12]: 2.88 ± 1.23 h | MRT inf [12]: 5.22 ± 3.5 h | Tmax (4.5 g·kg^−1 (extract), Tmax, oral LJ + SN extract): 1.07 ± 0.54 h | half-life [13]: 10.3 ± 5.06 h | AUC(0-t) [14]: 390 ± 460 ng·h/mL | AUC(0-inf) [14]: 400 ± 460 ng·h/mL | Cmax [14]: 270 ± 330 ng/mL | AUC(0-t) [15]: 220 ± 90 ng·h/mL | AUC(0-inf) [15]: 230 ± 190 ng·h/mL | Cmax [15]: 150 ± 150 ng/mL | MRT last [15]: 2.95 ± 0.82 h | MRT inf [15]: 7.88 ± 6.88 h | Tmax [16]: 1.29 ± 0.46 h | half-life [17]: 11.7 ± 6.52 h | AUC(0-t) [18]: 180 ± 130 ng·h/mL | AUC(0-inf) [18]: 200 ± 130 ng·h/mL | Cmax [18]: 140 ± 130 ng/mL | MRT last [18]: 3.05 ± 0.7 h | MRT inf [18]: 8.16 ± 6.76 h | Tmax [19]: 1.38 ± 0.44 h | half-life [20]: 11.8 ± 6.58 h | AUC(0-t) [21]: 300 ± 290 ng·h/mL | AUC(0-inf) [21]: 310 ± 290 ng·h/mL | Cmax [21]: 180 ± 200 ng/mL | MRT last [21]: 3.01 ± 0.69 h | MRT inf [21]: 7.01 ± 5.95 h | Tmax [22]: 1.38 ± 0.44 h | half-life [23]: 11.4 ± 6.34 h | Tmax [24]: 1.38 ± 0.44 h | half-life [25]: 11.6 ± 6.42 h
SMILES: COc1ccc(CCO[C@@H]2O[C@H](CO[C@@H]3OC[C@H](O)[C@H](O)[C@H]3O)[C@@H](OC(=O)/C=C/c3ccc(O)c(OC)c3)[C@H](O[C@@H]3O[C@@H](C)[C@H](O)[C@@H](O)[C@H]3O)[C@H]2O)cc1O [Angoroside C, angoroside C]
